Reference: patent publication US12419305B2, “Antimicrobial compositions” (Firmenich SA, priority 2018, dated 2025)

Legend:
S. haemolyticus 114126 = assay: BCT test (bacterial contact time), 120 s, log reduction / effect fraction; CI by Compusyn; format: cell-based; conditions: Staphylococcus haemolyticus, 114126, 2 min, contact 120 s, 25% EtOH; for log reduction at 0.5 % strength: dose 0.5% w/v
Description: S. haemolyticus: Suspensions of the S. haemolyticus 114126 strain, isolated from skin, were prepared as follows: Stock cultures (stored at −80° C.) were thawed and sub-cultured onto TSA-TW80 agar plate media, and incubated at 37° C. for 24 h to obtain single colonies. Single colonies of the primary cultures were streaked onto fresh TSA-TW80 plates and incubated at 37° C. for 24 h to prepare secondary cultures. Single colonies of secondary cultures were picked and used to inoculate 50 mL of BHI-TW80 broth. The inoculated broth was incubated at 37° C. at 180 rpm for 18 h. Aliquots (0.5 ml) of the 18 h culture were inoculated into 50 ml of fresh BHI-TW80 broth, and incubated at 37° C. at 180 rpm for approximately 3 hours. When the OD 600 nm value of the broth reached 1-2, cells were harvested by centrifugation at 5000 rpm for 10 min, and then resuspended in fresh BHI-TW80 broth at a concentration of 1-5×10^8 CFU/mL. This suspension was used as the bacterial suspension for the BCT test.
(§1) BCT Test: Test compositions at a range of concentrations (either combinations of more than one perfume ingredient, and comparative compositions comprising the single perfume ingredients) were prepared in ethanol. Five replicates of each test composition were added into 96-well microtiter plates (120 μl per well), with row B containing control compositions containing the ethanol solution alone. 120 μl of bacterial cell suspensions at a concentration of approximately 1×10^8 bacteria per mL (as prepared above) were added to each well of the microtiter plate. The bacterial suspensions were incubated with the test solutions for 45, 60, or 120 seconds. Following the incubation of the bacterial suspensions with the test solutions, serial dilutions of the bacterial suspensions were generated (three serial 1:10 dilutions, followed by 17 serial 1:2 dilutions), in multiwell microtiter plates.
(§2) Each plate was sealed and incubated at 37° C. under agitation (180 rpm). After incubation, the turbidity of the wells (OD600 nm) was determined using a Tecan microplate reader. Turbid wells were regarded as positive growth, due to the presence of viable cells. The total number of viable cells (log CFU) for each sample was calculated. And the log reduction for each test composition at the final concentration (dose) was calculated against the control sample of the ethanol solution.
(§3) Determination of Synergy via the Combination Index (CI): The CI was calculated using Compusyn software (ComboSyn, Inc., as created by Dr. Dorothy Chou in 2005), according to the manufacturer's instructions. The concentration of each test composition (combinations of more than one perfume ingredient, and comparative compositions comprising the single perfume ingredients used to generate the combination) and their corresponding effect fraction was entered, and the corresponding CI calculated.
(§4) When the calculated CI values were less than 0.9, the combination of perfume ingredients was regarded as having synergistic effect. When the calculated CI was between 1.0 a 0.9, the combination of perfume ingredients was regarded as having an additive effect. When the calculated CI was greater than 1.0, the combination of perfume ingredients was regarded as having an antagonistic effect.

[1] = tested on: Salmonella enterica ATCC 10708; assay: BCT test (bacterial contact time), 60 s, log reduction / effect fraction; CI by Compusyn; format: cell-based; conditions: Salmonella enterica, ATCC10708, 1 min, BCT 60 s, in 25% EtOH; for log reduction at 0.25 % strength: Dose 0.25 % w/v; for log reduction at 0.3 % strength: Dose 0.3 % w/v
Description: (§5) E. coli, S. aureus, P. aeruginosa, and S. enterica: Separate suspensions of the E. coli ATCC 10536 strain, S. aureus ATCC 6538 strain, Pseudomonas aeruginosa ATCC 15442 strain, and the Salmonella enterica ATCC 10708 strain were prepared as follows: Stock cultures (stored at −80° C.) were thawed and sub-cultured onto Tryptic Soy Agar (TSA) agar plate media, and incubated at 37° C. for 24 h to obtain single colonies. Single colonies of the primary cultures were streaked onto TSA plates and incubated at 37° for 24 h to generate secondary cultures. Single colonies of secondary cultures picked and used to inoculate into 50 mL of TSB broth. The inoculated TSB broth was incubated at 37° C. at 180 rpm for 18 h. Aliquots (0.5 ml) of the 18 h culture were inoculated into 50 ml of fresh TSB broth, and incubated at 37° C. at 180 rpm for 2-3 hours. When the OD600 nm value of the broth reached 1-2, cells were harvested by centrifugation at 5000 rpm for 10 min, and then resuspended in fresh TSB broth at a concentration of 1-5×10^8 CFU/mL. These suspensions were used as the bacterial suspensions for the BCT test.
as §1, §2, §3, §4

[2] = tested on: Pseudomonas aeruginosa ATCC 15442; assay: as above; format: cell-based; conditions: Pseudomonas aeruginosa, ATCC15442, 1 min, BCT 60 s, in 25% EtOH; for log reduction at 0.25 % strength: Dose 0.25 % w/v; for log reduction at 0.4 % strength: Dose 0.4 % w/v; for log reduction at 0.5 % strength: Dose 0.5 % w/v
Description: as §5, §1, §2, §3, §4

C. xerosis ATCC 373 = assay: BCT test (bacterial contact time), 120 s, log reduction / effect fraction; CI by Compusyn; format: cell-based; conditions: Corynebacterium xerosis, ATCC373, 2 min, contact 120 s, 25% EtOH; for log reduction at 0.5 % strength: dose 0.5% w/v; for log reduction at 0.75 % strength: dose 0.75% w/v; for log reduction at 1 % strength: dose 1.0% w/v
Description: C. xerosis: Suspensions of the C. xerosis ATCC 373 strain were prepared as follows: Stock cultures (stored at −80° C.) were thawed and subcultured onto Tryptic Soy Agar media with Tween 80 (TSA-TW80), and incubated at 37° C. for 48 h. The primary cultures were subcultured onto TSA-TW80 again, to prepare the secondary cultures. Single colonies of the secondary cultures were selected and used to inoculate 30 ml brain heart infusion broth with Tween 80 (BHI-TW80). The inoculated broth was incubated at 37° C. at 180 rpm for 24 h. Aliquots (1 ml) of the 24 h culture were inoculated into 30 ml of fresh BHI-TW80 broth media, and incubated at 37° C. at 180 rpm for 48 h. Aliquots (2-3 ml) of the 48 h culture were inoculated into four 50 ml of fresh BHI-TW80 broth media, and incubated at 37° C. 180 rpm for 4-6 hrs. When the OD 600 nm reached the target value of 1.6, cells were harvested by centrifugation at 5000 rpm for 10 min, and then resuspended in the same fresh BHI-TW80 at a concentration of 10^9 to 10^10 cfu/mL. This suspension was used as the bacterial suspension for the BCT test.
as §1, §2, §3, §4

S. aureus ATCC 6538 = assay: BCT test (bacterial contact time), 60 s, log reduction / effect fraction; CI by Compusyn; format: cell-based, Staphylococcus aureus; conditions: Staphylococcus aureus, ATCC6538, 1 min, 60 s, in 25% EtOH
Description: as §5, §1, §2, §3, §4

[3] = dose 0.25% w/v, read-out: Log reduction
[4] = dose 0.4% w/v, read-out: Log reduction

`CC(=O)OCc1ccccc1` [Benzyl acetate, benzyl acetate] was tested, and the log reduction at 0.25 % strength (S. haemolyticus 114126; [3]) was 0.2, the log reduction at 0.3 % strength (S. haemolyticus 114126; dose 0.3% w/v, read-out: Log reduction) was 0.5 and the log reduction at 0.35 % strength (S. haemolyticus 114126; dose 0.35% w/v) was 1.3. It also gave a log reduction at 0.4 % strength (S. haemolyticus 114126; [4]) of 2.5, a log reduction at 0.5 % strength (S. haemolyticus 114126) of 6.2 and a log reduction at 0.15 % strength ([1]; Dose 0.15 % w/v) of 0. It also gave a log reduction at 0.2 % strength ([1]; Dose 0.2 % w/v) of 1.9, a log reduction at 0.225 % strength ([1]; Dose 0.225 % w/v) of 5 and a log reduction at 0.25 % strength [1] of 6.5. The log reduction at 0.3 % strength [1] was 7.7, the log reduction at 0.2 % strength ([2]; Dose 0.2 % w/v, read-out: Log reduction) was 1.2 and the log reduction at 0.25 % strength ([2]; read-out: Log reduction) was 3.9. The log reduction at 0.4 % strength ([2]; read-out: Log reduction) was 7.4, the log reduction at 0.45 % strength ([2]; Dose 0.45 % w/v, read-out: Log reduction) was 7.4 and the log reduction at 0.5 % strength [2] was 7.4. It also gave a log reduction at 0.25 % strength (C. xerosis ATCC 373; [3]) of 0, a log reduction at 0.4 % strength (C. xerosis ATCC 373; [4]) of 1.1 and a log reduction at 0.5 % strength (C. xerosis ATCC 373) of 2.8. For the same compound, the log reduction at 0.75 % strength (C. xerosis ATCC 373) was 4.6, the log reduction at 1 % strength (C. xerosis ATCC 373) was 5.2 and the log reduction at 0.25 % strength (S. aureus ATCC 6538; dose 0.250 % w/v, read-out: Log reduction) was 0.8. The log reduction at 0.3 % strength (S. aureus ATCC 6538; dose 0.300 % w/v, read-out: Log reduction) was 1.9, the log reduction at 0.35 % strength (S. aureus ATCC 6538; dose 0.350 % w/v, read-out: Log reduction) was 5.1 and the log reduction at 0.4 % strength (S. aureus ATCC 6538; dose 0.400 % w/v, read-out: Log reduction) was 6.7. For the same compound, the log reduction at 0.45 % strength (S. aureus ATCC 6538; dose 0.45 % w/v) was 7.1.

For `Cc1ccc2c(c1)OCC(=O)CO2` [Calone, 7-methyl-2H-1,5-benzodioxepin-3(4H)-one], the log reduction at 0.5 % strength (S. haemolyticus 114126) was 0, the log reduction at 0.7 % strength (S. haemolyticus 114126; dose 0.7% w/v) was 0.5 and the log reduction at 0.8 % strength (S. haemolyticus 114126; dose 0.8% w/v) was 2.9. The log reduction at 0.9 % strength (S. haemolyticus 114126; dose 0.9% w/v) was 4.7, the log reduction at 1.2 % strength (S. haemolyticus 114126; dose 1.2% w/v) was 6.9 and the log reduction at 0.25 % strength [1] was 0.7. It also gave a log reduction at 0.3 % strength [1] of 2.7, a log reduction at 0.35 % strength ([1]; Dose 0.350 % w/v) of 4.2 and a log reduction at 0.4 % strength ([1]; Dose 0.4 % w/v) of 7.2. The log reduction at 0.45 % strength ([1]; Dose 0.450 % w/v) was 7.8, the log reduction at 0.25 % strength ([2]; read-out: Log reduction) was 0.3 and the log reduction at 0.3 % strength ([2]; Dose 0.3 % w/v, read-out: Log reduction) was 1. For the same compound, the log reduction at 0.35 % strength ([2]; Dose 0.35 % w/v) was 2.7, the log reduction at 0.4 % strength ([2]; read-out: Log reduction) was 4.3 and the log reduction at 0.5 % strength [2] was 6.9. It also gave a log reduction at 0.5 % strength (C. xerosis ATCC 373) of 0.2, a log reduction at 0.75 % strength (C. xerosis ATCC 373) of 0.6 and a log reduction at 1 % strength (C. xerosis ATCC 373) of 3.2. For the same compound, the log reduction at 1.25 % strength (C. xerosis ATCC 373; dose 1.25% w/v) was 6, the log reduction at 1.5 % strength (C. xerosis ATCC 373; dose 1.5% w/v) was 6.8 and the log reduction at 0.6 % strength (S. aureus ATCC 6538; dose 0.600 % w/v, read-out: Log reduction) was 1.6. The log reduction at 0.7 % strength (S. aureus ATCC 6538; dose 0.700 % w/v, read-out: Log reduction) was 2.5, the log reduction at 0.8 % strength (S. aureus ATCC 6538; dose 0.800 % w/v) was 6.9 and the log reduction at 0.9 % strength (S. aureus ATCC 6538; dose 0.900 % w/v) was 6.9. For the same compound, the log reduction at 1 % strength (S. aureus ATCC 6538; dose 1.000 % w/v, read-out: Log reduction) was 6.9.
